Reference: ChEMBL document CHEMBL1152529, “Synthesis, antifungal, haemolytic and cytotoxic activities of a series of bis(alkylpyridinium)alkanes” (Bioorg Med Chem, 2009)
≈ marks a conversion by molar mass, not a printed value. Blank lines part the entries; values can stand above or below the compound they belong to. Calls of active or inactive are those of the source. The calls are words filed in the database; no cut-off is given here.

Key:
[1] = system: Cryptococcus neoformans; test: Antifungal activity against Cryptococcus neoformans ATCC 90112 after 48 to 72 hrs by broth microdilution method; type: functional; details: Cryptococcus neoformans, ATCC 90112; for MIC: read-out: MIC
[2] = system: Candida albicans; test: Antifungal activity against Candida albicans ATCC 10231 after 48 to 72 hrs by broth microdilution method; type: functional; details: Candida albicans, ATCC 10231; for MIC: read-out: MIC
[3] = system: Pichia kudriavzevii; test: Antifungal activity against Candida krusei ATCC 6258 after 48 to 72 hrs by broth microdilution method; type: functional
[4] = system: Candida parapsilosis; test: Antifungal activity against Candida parapsilosis ATCC 22019 after 48 to 72 hrs by broth microdilution method; type: functional; details: Lodderomyces parapsilosis
[5] = system: Nakaseomyces glabratus; test: Antifungal activity against Candida glabrata 04-202345 after 48 to 72 hrs by broth microdilution method; type: functional
[6] = system: Aspergillus fumigatus; test: Antifungal activity against Aspergillus fumigatus ATCC 204305 after 48 to 72 hrs by broth microdilution method; type: functional
[7] = system: Aspergillus flavus; test: Antifungal activity against Aspergillus flavus ATCC 204304 after 48 to 72 hrs by broth microdilution method; type: functional
[8] = system: Aspergillus terreus; test: Antifungal activity against Aspergillus terreus 05-202844 after 48 to 72 hrs by broth microdilution method; type: functional
[9] = system: Lomentospora prolificans; test: Antifungal activity against Scedosporium prolificans 05-203060 after 48 to 72 hrs by broth microdilution method; type: functional
[10] = system: Scedosporium apiospermum; test: Antifungal activity against Scedosporium apiospermum 05-203100 after 48 to 72 hrs by broth microdilution method; type: functional
[11] = system: Rhizopus arrhizus; test: Antifungal activity against Rhizopus oryzae 05-203111 after 48 to 72 hrs by broth microdilution method; type: functional
[12] = system: Exophiala spinifera; test: Antifungal activity against Exophiala spinifera 03-200803 after 48 to 72 hrs by broth microdilution method; type: functional
[13] = system: Curvularia australiensis; test: Antifungal activity against Bipolaris australiensis 03-201798 after 48 to 72 hrs by broth microdilution method; type: functional
[14] = molecular target: Phospholipase A2, major isoenzyme (Sus scrofa, UniProt P00592); test: Inhibition of porcine pancreatic PLA2 after 1 hr by radiometric method
[15] = Inhibition of phospholipid fatty acyl chain hydrolysis activity of Cryptococcus neoformans var. grubii H99 PLB assessed as formation of radiolabeled free fatty acid at pH 4 by radiometric assay
[16] = system: Cryptococcus neoformans var. grubii H99; test: Inhibition of lysophospholipid fatty acyl chain hydrolysis activity of Cryptococcus neoformans var. grubii H99 PLB assessed as formation of radiolabeled free fatty acid at 0.25 to 250 uM at pH 4 by radiometric assay
[17] = system: Cryptococcus neoformans var. grubii H99; test: Inhibition of lysophospholipase acyltransferase activity of Cryptococcus neoformans var. grubii H99 PLB assessed as formation of radiolabeled dipalmitoyl phosphatidylcholine at 0.25 to 250 uM at pH 4 by radiometric assay
[18] = Cytotoxicity against human erythrocytes assessed as hemolysis after 1 hr; type: cell-based, Erythrocyte
[19] = system: A549; test: Cytotoxicity against human A549 cells after 3 hrs by MTS assay; type: cell-based; details: A549, 3 h
[20] = system: MDCK; test: Cytotoxicity against MDCK cells after 3 hrs by MTS assay; type: cell-based; details: Canis lupus familiaris

Sequence of Phospholipase A2, major isoenzyme (P00592 whole entry): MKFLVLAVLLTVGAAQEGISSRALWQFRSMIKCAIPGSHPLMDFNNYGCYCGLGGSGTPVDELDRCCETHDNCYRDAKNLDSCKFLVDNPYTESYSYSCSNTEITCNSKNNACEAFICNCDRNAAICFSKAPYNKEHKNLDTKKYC

SMILES: CCCCCc1cc[n+](CCCCCCCCCCCC[n+]2ccc(CCCCC)c(CCCCC)c2)cc1CCCCC
- MFC [1]: 1.4 µM
- MIC [1]: 1.4 µM
- MFC [2]: 2.7 µM
- MIC [2]: 2.7 µM
- MFC [3]: 2.7 µM
- MIC [3]: 2.7 µM
- MFC [4]: 2.7 µM
- MIC [4]: 2.7 µM
- MFC [5]: 1.4 µM
- MIC [5]: 1.4 µM
- MFC [6]: 22 µM
- MIC [6]: 11 µM
- MFC [7]: 22 µM
- MIC [7]: 11 µM
- MFC [8]: 2.7 µM
- MIC [8]: 1.4 µM
- MFC [9]: 5.5 µM
- MIC [9]: 2.7 µM
- MFC [10]: 5.5 µM
- MIC [10]: 5.5 µM
- MFC [11]: 2.7 µM
- MIC [11]: 2.7 µM
- MFC [12]: 2.7 µM
- MIC [12]: 2.7 µM
- MFC [13]: 2.7 µM
- MIC [13]: 2.7 µM
- IC50 [14]: 52 µM
- IC50 [15]: 4 µM
- Activity [16]: inactive
- Activity [17]: inactive
- HC50 at 1 h [18]: 17.5 µM
- IC50 [19]: 45 µM
- IC50 [20]: 70 µM

- MIC [1]: 5.5 µM
- MIC [2]: 2.7 µM
- IC50 [14]: 56 µM
- IC50 [15]: 47 µM
- Activity [16]: inactive
- Activity [17]: inactive
SMILES: C=CCCCc1cc[n+](CCCCCCCCCCCC[n+]2ccc(CCCC=C)cc2)cc1
- HC50 at 1 h [18]: > 350 µM
- IC50 [19]: > 350 µM
- IC50 [20]: > 350 µM

- MIC [1]: 88 µM
- MIC [2]: 88 µM
- IC50 [14]: > 250 µM
- IC50 [15]: > 250 µM
- Activity [16]: inactive
- Activity [17]: inactive
SMILES: OCCCc1cc[n+](CCCCCCCCCCCC[n+]2ccc(CCCO)cc2)cc1
- HC50 at 1 h [18]: > 350 µM
- IC50 [19]: > 350 µM
- IC50 [20]: > 350 µM

- MIC [1]: 2.7 µM
- MIC [2]: 5.5 µM
- IC50 [14]: 67 µM
- IC50 [15]: 57 µM
- Activity [16]: inactive
- Activity [17]: inactive
SMILES: CC(C)CCc1cc[n+](CCCCCCCCCCCC[n+]2ccc(CCC(C)C)cc2)cc1
- HC50 at 1 h [18]: > 350 µM
- IC50 [19]: > 350 µM
- IC50 [20]: > 350 µM

SMILES: CCc1ccc[n+](CCCCCCCCCCCC[n+]2cccc(CC)c2)c1
- MIC [1]: 88 µM
- MIC [2]: 44 µM

- MIC [1]: 88 µM
- MIC [2]: 44 µM
- IC50 [14]: > 250 µM
- IC50 [15]: > 250 µM
- Activity [16]: inactive
- Activity [17]: inactive
SMILES: c1cc[n+](CCCCCCCCCCCC[n+]2ccccc2)cc1
- HC50 at 1 h [18]: > 350 µM

SMILES: CCCCCc1cc[n+](CCCCCCCCCCCC[n+]2ccc(CCCCC)c(C)c2)cc1C
- MIC [1]: 1.4 µM
- MIC [2]: 2.7 µM
- IC50 [14]: 134 µM
- IC50 [15]: 8 µM
- Activity [16]: inactive
- Activity [17]: inactive
- HC50 at 1 h [18]: > 350 µM
- IC50 [19]: 122 µM
- IC50 [20]: 145 µM

- MIC [1]: 2.7 µM
- MIC [2]: 5.5 µM
SMILES: CC(C)(C)CCc1cc[n+](CCCCCCCCCCCC[n+]2ccc(CCC(C)(C)C)cc2)cc1
- HC50 at 1 h [18]: > 350 µM
- IC50 [19]: 105 µM
- IC50 [20]: 135 µM

- MIC [1]: 11 µM
- MIC [2]: 22 µM
- IC50 [14]: > 250 µM
- IC50 [15]: 34 µM
- Activity [16]: inactive
- Activity [17]: inactive
SMILES: CC(C)(C)c1cc[n+](CCCCCCCCCCCC[n+]2ccc(C(C)(C)C)cc2)cc1
- HC50 at 1 h [18]: > 350 µM
- IC50 [19]: > 350 µM
- IC50 [20]: > 350 µM

SMILES: C[C@@H]1[C@H](O)[C@@H](C)/C=C/C=C/C=C/C=C/C=C/C=C/C=C/[C@H](O[C@@H]2O[C@H](C)[C@@H](O)[C@H](N)[C@@H]2O)C[C@@H]2O[C@](O)(C[C@@H](O)C[C@@H](O)[C@H](O)CC[C@@H](O)C[C@@H](O)CC(=O)O[C@H]1C)C[C@H](O)[C@H]2C(=O)O [AMPHOTERICIN B]
- MIC [1]: 0.54 µM (≈ 0.499 µg/mL)
- MIC [2]: 0.54 µM (≈ 0.499 µg/mL)
- MIC [3]: 0.54 µM (≈ 0.499 µg/mL)
- MIC [4]: 0.13 µM (≈ 0.12 µg/mL)
- MIC [5]: 1.1 µM (≈ 1.02 µg/mL)
- MIC [6]: 0.54 µM (≈ 0.499 µg/mL)
- MIC [7]: 0.54 µM (≈ 0.499 µg/mL)
- MIC [8]: 1.1 µM (≈ 1.02 µg/mL)
- MIC [9]: 4.3 µM (≈ 3.97 µg/mL)
- MIC [10]: 17 µM (≈ 15.7 µg/mL)
- MIC [11]: 0.06 µM (≈ 0.0554 µg/mL)
- MIC [12]: 0.27 µM (≈ 0.25 µg/mL)
- MIC [13]: 0.03 µM (≈ 0.0277 µg/mL)

- MIC [1]: 44 µM
- MIC [2]: 22 µM
SMILES: CC(C)c1cc[n+](CCCCCCCCCCCC[n+]2ccc(C(C)C)cc2)cc1
- IC50 [19]: > 350 µM
- IC50 [20]: > 350 µM

SMILES: CCCCCc1cccc[n+]1CCCCCCCCCCCC[n+]1ccccc1CCCCC
- MIC [1]: 2.7 µM
- MIC [2]: 2.7 µM
- HC50 at 1 h [18]: > 350 µM
- IC50 [19]: > 350 µM
- IC50 [20]: 315 µM

- MIC [1]: 88 µM
- MIC [2]: 88 µM
SMILES: OCc1cc[n+](CCCCCCCCCCCC[n+]2ccc(CO)cc2)cc1

- MIC [1]: 2.7 µM
- MIC [2]: 1.4 µM
- IC50 [14]: > 250 µM
- IC50 [15]: 6 µM
- Activity [16]: inactive
- Activity [17]: inactive
SMILES: CCCCCCc1cc[n+](CCCCCCCCCCCC[n+]2ccc(CCCCCC)cc2)cc1
- HC50 at 1 h [18]: 129 µM
- IC50 [19]: 48 µM
- IC50 [20]: 61 µM
